Laboratory results taken from the supplement of paper PMC10307832.

How the values were obtained:
Assay in all cases: relative viability (nuclei count vs DMSO), 5 days (fraction); higher = more cells survive
KIN001-266 + Linsitinib = compound: CCN1CCC(CC1)N2C=C(N=N2)CNC3=CC4=C(C(=CN=C4C(=C3)Cl)C#N)NC5=CC(=C(C=C5)F)Cl [KIN001-266] + C[C@]1(O)C[C@@H](c2nc(-c3ccc4ccc(-c5ccccc5)nc4c3)c3c(N)nccn32)C1 [Linsitinib] (partner 1 µM)
Summary of the method: (§1)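 Relative viability divides the nuclei count in treated wells by that in vehicle wells. Lung cancer cell lines were seeded in 1536-well plates, dosed by pin tool the next day, and fixed and stained after 5 days in one step with final 0.05% Triton X-100, 1% formaldehyde and 1 ug/ml Hoechst. Dosing was a single drug or a fixed anchor-drug dose plus five library-drug doses (not always all listed) in √10 steps, and values are medians of duplicate plates imaged at 4×.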

KIN001-266 + OSI-027 = compound: CCN1CCC(CC1)N2C=C(N=N2)CNC3=CC4=C(C(=CN=C4C(=C3)Cl)C#N)NC5=CC(=C(C=C5)F)Cl [KIN001-266] + COc1cccc2cc(-c3nc([C@H]4CC[C@H](C(=O)O)CC4)n4ncnc(N)c34)[nH]c12 [OSI-027] (partner 0.5 µM)
Summary of the method: as §1

KIN001-266 + Luminespib = compound: CCN1CCC(CC1)N2C=C(N=N2)CNC3=CC4=C(C(=CN=C4C(=C3)Cl)C#N)NC5=CC(=C(C=C5)F)Cl [KIN001-266] + CCNC(=O)c1noc(-c2cc(C(C)C)c(O)cc2O)c1-c1ccc(CN2CCOCC2)cc1 [Luminespib] (partner 0.01 µM)
Summary of the method: as §1

KIN001-266 + Lapatinib = compound: CCN1CCC(CC1)N2C=C(N=N2)CNC3=CC4=C(C(=CN=C4C(=C3)Cl)C#N)NC5=CC(=C(C=C5)F)Cl [KIN001-266] + CS(=O)(=O)CCNCc1ccc(-c2ccc3ncnc(Nc4ccc(OCc5cccc(F)c5)c(Cl)c4)c3c2)o1 [Lapatinib] (partner 2 µM)
Summary of the method: as §1

Cell Line | relative viability (KIN001-266 + Linsitinib; first compound 0.08 µM) | relative viability (KIN001-266 + Linsitinib; first compound 0.253 µM) | relative viability (KIN001-266 + Linsitinib; first compound 0.8 µM) | relative viability (KIN001-266 + Linsitinib; first compound 2.53 µM) | relative viability (KIN001-266 + Linsitinib; first compound 8 µM) | relative viability (KIN001-266 + OSI-027; first compound 0.08 µM) | relative viability (KIN001-266 + OSI-027; first compound 0.253 µM) | relative viability (KIN001-266 + OSI-027; first compound 0.8 µM) | relative viability (KIN001-266 + OSI-027; first compound 2.53 µM) | relative viability (KIN001-266 + OSI-027; first compound 8 µM) | relative viability (KIN001-266 + Luminespib; first compound 0.08 µM) | relative viability (KIN001-266 + Luminespib; first compound 0.253 µM) | relative viability (KIN001-266 + Luminespib; first compound 0.8 µM) | relative viability (KIN001-266 + Luminespib; first compound 2.53 µM) | relative viability (KIN001-266 + Luminespib; first compound 8 µM) | relative viability (KIN001-266 + Lapatinib; first compound 0.08 µM) | relative viability (KIN001-266 + Lapatinib; first compound 0.253 µM) | relative viability (KIN001-266 + Lapatinib; first compound 0.8 µM) | relative viability (KIN001-266 + Lapatinib; first compound 2.53 µM) | relative viability (KIN001-266 + Lapatinib; first compound 8 µM)
NCI-H647 | 1.31 | 1.03 | 1.26 | 1.13 | 1.03 | 0.669 | 0.691 | 0.577 | 0.857 | 0.544 | 0.162 | 0.138 | 0.419 | 0.179 | 0.153 | 1.04 | 1.07 | 1.11 | 0.876 | 0.818
SW 1573 | 0.844 | 0.8 | 0.72 | 0.732 | 0.619 | 0.778 | 0.627 | 0.616 | 0.515 | 0.513 | 0.268 | 0.272 | 0.195 | 0.238 | 0.211 | 1.09 | 1.13 | 1.11 | 0.88 | 1.04
NCI-H1651 | 1.08 | 1.02 | 0.948 | 0.998 | 0.861 | 0.709 | 0.787 | 0.743 | 0.753 | 0.636 | 0.845 | 0.936 | 0.753 | 0.861 | 0.593 | 0.912 | 0.931 | 0.85 | 0.962 | 0.84
NCI-H1792 | 0.544 | 0.471 | 0.515 | 0.603 | 0.533 | 0.772 | 0.711 | 0.729 | 0.732 | 0.691 | 0.414 | 0.381 | 0.403 | 0.628 | 0.486 | 0.894 | 0.916 | 0.86 | 0.925 | 0.853
NCI-H2023 | 0.696 | 0.706 | 0.696 | 0.617 | 0.481 | 0.449 | 0.437 | 0.379 | 0.368 | 0.241 | 0.738 | 0.698 | 0.764 | 0.696 | 0.865 | 0.774 | 0.971 | 1.09 | 0.855 | 0.34
COR-L 105 | 0.974 | 0.932 | 0.991 | 0.93 | 0.846 | 0.683 | 0.822 | 0.66 | 0.645 | 0.576 | 0.616 | 0.802 | 0.758 | 0.743 | 1.02 | 0.349 | 0.393 | 0.34 | 0.417 | 0.381
NCI-H1734 | 0.812 | 0.876 | 0.735 | 0.848 | 0.856 | 0.621 | 0.583 | 0.578 | 0.549 | 0.522 | 0.196 | 0.195 | 0.191 | 0.19 | 0.193 | 1.1 | 1.32 | 1.03 | 0.982 | 1.02
NCI-H3122 | 0.979 | 0.97 | 0.996 | 0.958 | 0.96 | 0.965 | 0.905 | 0.917 | 0.804 | 0.8 | 0.0939 | 0.0878 | 0.106 | 0.123 | 0.098 | 0.893 | 0.945 | 1.03 | 0.964 | 0.907
CAL-12T | 0.802 | 0.811 | 0.774 | 0.863 | 0.493 | 0.696 | 0.742 | 0.538 | 0.508 | 0.509 | 0.363 | 0.322 | 0.499 | 0.475 | 0.2 | 0.826 | 0.706 | – | 0.679 | 0.626
NCI-H2085 | 0.854 | 0.986 | 0.908 | 0.949 | 0.793 | 0.808 | 0.835 | 0.582 | 0.759 | 0.416 | 0.412 | 0.437 | 0.404 | 0.434 | 0.429 | 0.829 | 0.853 | 0.716 | 0.755 | 0.617
